Data as given in ChEMBL document CHEMBL1667790, “Synthesis and antioxidant activity of long chain alkyl hydroxycinnamates” (Eur J Med Chem, 2011).

Assays:
[1] = tested on: Radical scavenging activity; test: Antioxidant activity assessed as residual DPPH radical scavenging activity after 45 mins by spectrophotometrically; type: functional
[2] = Antioxidant activity assessed as trolox equivalents of ABTS radical scavenging activity by TEAC assay; type: functional

In the case of `COc1cc(/C=C/C(=O)O)ccc1O` [FERULATE], the IC50 [1] is reported as 112 µM and the Activity [2] is reported as 1.76 mmol.

With `O=C(O)/C=C/c1ccc(O)cc1` [COUMARIC ACID] the IC50 [1] was greater than 100 µM.

For `CCCCCCCCCCCCCCCCCCOC(=O)/C=C/c1ccc(O)c(O)c1`, the IC50 [1] was 38 µM and the Activity [2] was 1.02 mmol.

With `CCCCCCCCCCCCCCCCCCOC(=O)/C=C/c1cc(OC)c(O)c(OC)c1` the IC50 [1] was 77.1 µM and the Activity [2] was 1.16 mmol.

For `CCCCCCCCCCCCCCOC(=O)/C=C/c1cc(OC)c(O)c(OC)c1`, the IC50 [1] was 77.2 µM and the Activity [2] was 1.18 mmol.

Molecule `COc1cc(/C=C/C(=O)O)cc(OC)c1O` [SINAPINATE] has an IC50 [1] of 66 µM and an Activity [2] of 1.14 mmol.

Molecule `CCCCCCCCCCCCCCOC(=O)/C=C/c1ccc(O)cc1` has an IC50 [1] greater than 100 µM.

For `CCCCCCCCCCCCCCCCCCOC(=O)/C=C/c1ccc(O)c(OC)c1`, the IC50 [1] was 117 µM and the Activity [2] was 1.8 mmol.

In the case of `O=C(O)/C=C/c1ccc(O)c(O)c1` [CAFFEIC ACID], the IC50 [1] is reported as 34.1 µM and the Activity [2] is reported as 0.95 mmol.

Work on `CCCCCCCCCCCCCCOC(=O)/C=C/c1ccc(O)c(OC)c1` yielded an IC50 [1] of 110 µM and an Activity [2] of 1.66 mmol.

Molecule `CCCCCCCCCCCCCCCCOC(=O)/C=C/c1ccc(O)c(O)c1` has an IC50 [1] of 33 µM and an Activity [2] of 0.96 mmol.

For `CCCCCCCCCCCCCCOC(=O)/C=C/c1ccc(O)c(O)c1`, the IC50 [1] was 31.9 µM and the Activity [2] was 0.98 mmol.
